Test results as given in patent publication US4153710A, “N-(4-[2-(pyrazole-1-carbonamide)-ethyl]-benzenesulphonyl)-urea” (Starogardzkie Zaklady Farmaceutyczne POLFA, priority 1976, dated 1979).

How the values were obtained:
[1] = tested on: calcium transmission in mitochondria of a rat's liver; test: Calcium transmission to rat liver mitochondria; format: biochemical; conditions: for % of inhibition, calcium transmission: medium with CaCl 300 nmoles/ml
Method: Sucrose 170mM, KCl 10 mM, MgCl2 […], K2 HPO 5 mM, EGTA 0.01 mM
2-oxoglutaran 2 mM, ADP 1 mM, mitochondria
protein 4 mg/m. Temperature 25° C.
of hydrogen ion consumption. The calcium transmission to mitochondria was
studied with two methods; in a continuous way with a Radiometer calcium
electrode type F2112 or with an isotopic method.
*The medium contained Ca Cl 300 nmoles/ml.

glucose concentration [2] = test: Blood glucose in normal men volunteers (Table 7); format: in vivo; conditions: for decrease in blood-glucose vs starting value: 5 mg oral; for Glucose concentration: oral 5 mg SPC-5002 or 12.5 mg Glibornuride
Method: (§1) The hypoglycemic activity of N-{4-[2-(pyrazole-1-carbonamide)-ethyl]-benzenesulphonyl}-ureas prepared according to the present invention can be noticed after their oral administration to mice, rats, rabbits and people and when determining the glucose concentration in blood with a known enzymatic method using glucose oxidase.
(§2) When administered to normal men volunteers it has been stated that 60 minutes after the administration of SPC-5002 a 5 mg oral dose causes the decrease in blood-glucose of 28% in comparision to the starting value and after 90 minutes it reaches 33% (Table 7). Whereas Glibornuride employed in a dose 2.5 times as big on peak of its activity decreases the glucose blood level only of 19%. It can clearly be noticed that there is a positive correlation between the glycemic and insulin level curves. Both examined preparations cause a significant decrease in free fatty acids in blood. […] 60 and 90 minutes after the SPC-5002 administration, the blood-glycose level is decreased to 33 and 52% while in the Placebo group it is maintained in the range of 13-14%.
(§3) The comparison of glucose, insulin and free fatty acids concentration in
(§4) normal men after the oral administration of 5 mg of SPC-5002 or 12.5 mg

[3] = tested on: free fatty acids concentration; test: Free fatty acids in normal men volunteers (Table 7); format: in vivo; conditions: oral 5 mg SPC-5002 or 12.5 mg Glibornuride
Method: as §2, §3, §4

[4] = tested on: blood-glucose concentration; test: Blood-glucose time course up to 24 hours in rabbits (Table 4); format: in vivo; conditions: for glucose concentration in blood, average: oral 5 mg/kg
Method: as §1, with “oxidase. […]” for “oxidase.”
(§5) The comparison of SPC-5002 and Glibornuride effect on changes in
concentration of rabbits in time up to 24 hours from the moment of the
in an oral dose containing 5 mg/kg body weight

[5] = tested on: oxidizing phosphorylation in mitochondria of a rat's liver; test: Oxidizing phosphorylation of rat liver mitochondria; format: biochemical
Method: 2-oxoglutaran 2 mM, ADP 1 mM, mitochondria | protein 4 mg/m. […] The | oxidizing phosphorylation speed was determined by means of the measuremen | of hydrogen ion consumption. The calcium transmission to mitochondria was […]

[6] = tested on: blood-glucose concentration; test: ED30 oral hypoglycemic dose in mice (Table 2); format: in vivo; conditions: Mus musculus, oral, read-out: Effective oral doses ED30
Method: as §1
(§6) (Table 2). […] It has been observed that even 9 hours after the administration of one dose of SPC-5002 to rats, the glucose level in blood was decreased, whereas in the case of Glibornuride the glucose level comes back to its normal value in 6 hours from the time of the administration.

[7] = tested on: blood-glucose concentration; test: Blood-glucose time course up to 24 hours in rats (Table 3); format: in vivo; conditions: for glucose concentration in blood, average: oral 4 mg/kg
Method: as §1, §6, §5
concentration of rats in time up to 24 hours from the moment of the
in an oral dose containing 4 mg/kg body weight

glucose concentration [8] = test: Blood glucose in normal men after a meal (Table 8); format: in vivo; conditions: for blood-glycose level decrease: normal men after meal; for Glucose concentration / % of changes in glucose concentration: meal, oral 10 mg
Method: as §1, §2
The comparison of glucose concentration changes in voluntary-normal men
eaten a meal and the oral administration of 10 mg of SPC-5002 or Placebo

[9] = Oral toxicity in mice (LD50); conditions: mouse, in vivo
[10] = tested on: blood-glucose concentration; test: Decrease in blood-glucose concentration in rats after oral dose (Table 1; ED30 rats Table 2); format: in vivo; conditions: Rattus norvegicus, oral, read-out: Effective oral doses ED30
Text: as §1
The exemplary comparison of effective doses (ED30) and the effect of oral dose size of the compounds prepared according to the present invention with Glibornuride, which is distinguished by its high effectiveness and good tolerance when administered to people, on the glucose concentration in the blood of rats, is given in Table 1.

[11] = tested on: blood-glucose concentration; test: Hypoglycemic activity in three animal species versus Glibornuride; format: in vivo, mice, rats, rabbits; conditions: parenteral and oral
Method: as §1, §6

[12] = Acute, subacute and protracted toxicity (6 months); format: in vivo
[13] = tested on: blood-glucose concentration; test: ED30 oral hypoglycemic dose in rabbits (Table 2); format: in vivo; conditions: Oryctolagus cuniculus, read-out: Effective oral doses ED30
Method: as §1, §6

Question: For `Cc1ccn(C(=O)NCCc2ccc(S(=O)(=O)NC(=O)NC3CCCCC3)cc2)n1` [SPC-5002, N-{4-[2-(3-methylpyrazole-1-carbonamide)-ethyl]-benzenesulphonyl}-N'-cyclohexylourea], which “% of inhibition, calcium transmission” value ([1]; concentration 0.05 n M) is on record?
Answer: 8%

Question: And the “Calcium transmission / Oxide consumption (ratio of inhibition)” value ([1]; concentration 0.1 n M)?
Answer: 1.75

Question: What about the “% of inhibition, calcium transmission” value ([1]; concentration 0.1 n M) of the same molecule?
Answer: 21%

Question: What about the “Calcium transmission / Oxide consumption (ratio of inhibition)” value ([1]; concentration 0.3 n M) of the same molecule?
Answer: 1.42

Question: And the “% of inhibition, calcium transmission” value ([1]; concentration 0.3 n M)?
Answer: 30%

Question: What about the “Calcium transmission / Oxide consumption (ratio of inhibition)” value ([1]; concentration 0.5 n M) of the same molecule?
Answer: 1.55

Question: What about the “% of inhibition, calcium transmission” value ([1]; concentration 0.5 n M) of the same molecule?
Answer: 53%

Question: And the “Calcium transmission / Oxide consumption (ratio of inhibition)” value ([1]; concentration 1.0 n M)?
Answer: 0.99

Question: And the “% of inhibition, calcium transmission” value ([1]; concentration 1.0 n M)?
Answer: 68%

Question: And the Ki ([1]; rat liver mitochondria)?
Answer: 450 µM

Question: And the “preference of inhibition: calcium transmission versus oxidizing processes” value ([1]; rat liver mitochondria)?
Answer: preferential inhibiting of calcium transmission

Question: What about the “Ki ratio SPC-5002 / Glibenclamide, calcium transmission” value ([1]; ratio of inhibitor constants) of the same molecule?
Answer: 10

Question: What about the “decrease in blood-glucose vs starting value” (glucose concentration [2]; 60 minutes) of the same molecule?
Answer: 28%

Question: And the “decrease in blood-glucose vs starting value” (glucose concentration [2]; 90 minutes)?
Answer: 33%

Question: What about the Glucose concentration (glucose concentration [2]; 0 mins (empty stomach)) of the same molecule?
Answer: 96.8 mg/100 cc

Question: What about the Glucose concentration (glucose concentration [2]; 30 mins) of the same molecule?
Answer: 88.5 mg/100 cc

Question: And the Glucose concentration (glucose concentration [2]; 60 mins)?
Answer: 69.0 mg/100 cc

Question: What about the Glucose concentration (glucose concentration [2]; 90 mins) of the same molecule?
Answer: 65.5 mg/100 cc

Question: And the Glucose concentration (glucose concentration [2]; 120 mins)?
Answer: 76.5 mg/100 cc

Question: What about the Glucose concentration (glucose concentration [2]; 180 mins) of the same molecule?
Answer: 79.7 mg/100 cc

Question: And the “Free fatty acids concentration” value ([3]; 0 mins (empty stomach))?
Answer: 0.63 mEq/1000 cc

Question: And the “Free fatty acids concentration” value ([3]; 30 mins)?
Answer: 0.48 mEq/1000 cc

Question: What about the “Free fatty acids concentration” value ([3]; 60 mins) of the same molecule?
Answer: 0.46 mEq/1000 cc

Question: What about the “Free fatty acids concentration” value ([3]; 90 mins) of the same molecule?
Answer: 0.48 mEq/1000 cc

Question: And the “Free fatty acids concentration” value ([3]; 120 mins)?
Answer: 0.51 mEq/1000 cc

Question: And the “Free fatty acids concentration” value ([3]; 180 mins)?
Answer: 0.52 mEq/1000 cc

Question: What about the “effectiveness and duration relative to Glibornuride” value [4] of the same molecule?
Answer: more effective and longer activity in comparison to Glibornuride

Question: And the “glucose concentration in blood, average” value ([4]; 0 h)?
Answer: 71 mg/100 cc

Question: What about the “glucose concentration in blood, average” value ([4]; 0.5 h) of the same molecule?
Answer: 57 mg/100 cc

Question: What about the “glucose concentration in blood, average” value ([4]; 1 h) of the same molecule?
Answer: 59 mg/100 cc

Question: And the “glucose concentration in blood, average” value ([4]; 3 h)?
Answer: 63 mg/100 cc

Question: What about the “glucose concentration in blood, average” value ([4]; 6 h) of the same molecule?
Answer: 62 mg/100 cc

Question: What about the “glucose concentration in blood, average” value ([4]; 9 h) of the same molecule?
Answer: 62 mg/100 cc

Question: What about the “glucose concentration in blood, average” value ([4]; 24 h) of the same molecule?
Answer: 70 mg/100 cc

Question: And the “effect on oxidizing phosphorylation” value ([5]; 0.05 nM)?
Answer: no effect

Question: What about the “% of inhibition, oxidizing phosphorylation” value ([5]; concentration 0.05 n M) of the same molecule?
Answer: 0%

Question: And the “% of inhibition, oxidizing phosphorylation” value ([5]; concentration 0.1 n M)?
Answer: 15%

Question: What about the “% of inhibition, oxidizing phosphorylation” value ([5]; concentration 0.3 n M) of the same molecule?
Answer: 21%

Question: What about the “% of inhibition, oxidizing phosphorylation” value ([5]; concentration 0.5 n M) of the same molecule?
Answer: 38%

Question: What about the “% of inhibition, oxidizing phosphorylation” value ([5]; concentration 0.7 n M) of the same molecule?
Answer: 63%

Question: And the “% of inhibition, oxidizing phosphorylation” value ([5]; concentration 1.0 n M)?
Answer: 74%

Question: And the Ki ([5]; rat liver mitochondria)?
Answer: 600 µM

Question: What about the ED30 [6] of the same molecule?
Answer: 1.9 mg/kg

Question: And the “duration of decreased blood glucose after one dose” value ([7]; one dose)?
Answer: ≥ 9 h

Question: And the “duration of hypoglycemic activity relative to Glibornuride” value ([7]; one dose)?
Answer: longer hypoglycemic activity than the administration of Glibornuride

Question: What about the “glucose concentration in blood, average” value ([7]; 0 h) of the same molecule?
Answer: 82 mg/100 cc

Question: And the “glucose concentration in blood, average” value ([7]; 1 h)?
Answer: 58 mg/100 cc

Question: And the “glucose concentration in blood, average” value ([7]; 3 h)?
Answer: 45 mg/100 cc

Question: And the “glucose concentration in blood, average” value ([7]; 6 h)?
Answer: 65 mg/100 cc

Question: What about the “glucose concentration in blood, average” value ([7]; 9 h) of the same molecule?
Answer: 70 mg/100 cc

Question: And the “glucose concentration in blood, average” value ([7]; 24 h)?
Answer: 85 mg/100 cc

Question: And the blood-glycose level decrease (glucose concentration [8]; 60 minutes)?
Answer: 33%

Question: What about the blood-glycose level decrease (glucose concentration [8]; 90 minutes) of the same molecule?
Answer: 52%

Question: What about the “glucose increase vs starting value” (glucose concentration [8]; normal men, 30 minutes after the meal) of the same molecule?
Answer: 34%

Question: What about the Glucose concentration (glucose concentration [8]; normal men, 0 mins (empty stomach)) of the same molecule?
Answer: 89 mg/100 cc

Question: What about the “% of changes in glucose concentration” value (glucose concentration [8]; normal men, 30 mins) of the same molecule?
Answer: +34%

Question: What about the Glucose concentration (glucose concentration [8]; normal men, 30 mins) of the same molecule?
Answer: 119 mg/100 cc

Question: And the “% of changes in glucose concentration” value (glucose concentration [8]; normal men, 60 mins)?
Answer: -33%

Question: And the Glucose concentration (glucose concentration [8]; normal men, 60 mins)?
Answer: 60 mg/100 cc

Question: What about the “% of changes in glucose concentration” value (glucose concentration [8]; normal men, 90 mins) of the same molecule?
Answer: -52%

Question: What about the Glucose concentration (glucose concentration [8]; normal men, 90 mins) of the same molecule?
Answer: 43 mg/100 cc

Question: What about the “% of changes in glucose concentration” value (glucose concentration [8]; normal men, 120 mins) of the same molecule?
Answer: -21%

Question: What about the Glucose concentration (glucose concentration [8]; normal men, 120 mins) of the same molecule?
Answer: 70 mg/100 cc

Question: What about the “% of changes in glucose concentration” value (glucose concentration [8]; normal men, 180 mins) of the same molecule?
Answer: 0%

Question: And the Glucose concentration (glucose concentration [8]; normal men, 180 mins)?
Answer: 89 mg/100 cc

Question: And the LD50 [9]?
Answer: > 20000 mg/kg

Question: What about the ED30 [10] of the same molecule?
Answer: 2.2 mg/kg

Question: And the “hypoglycemic activity relative to Glibornuride” value [11]?
Answer: about twice as active as Glibornuride

Question: And the “changes in haematopoietic system” value ([12]; 6 months administration)?
Answer: No changes in the haematopoietic system

Question: And the “effect on liver and kidneys” value ([12]; 6 months administration)?
Answer: did not handicap the activities of the liver and kidneys

Question: And the “general number of white blood corpuscles” value ([12]; 6 months administration)?
Answer: did not influence the general number of white blood corpuscles

Question: And the toxicity ([12]; acute, subacute and protracted toxicity)?
Answer: extremely low toxicity

Question: And the “body weight, consumption of food and water” value ([12]; compared with control group)?
Answer: did not reveal any differences between the control group and the group under examination

Question: What about the ED30 [13] of the same molecule?
Answer: 5.5 mg/kg
